Patent US20150310826A1, “DISPLAY DEVICE AND PHOTOTHERAPY METHOD USING THE SAME” (Samsung Display Co., Ltd., priority 2014, published 2015)

Legend:
B16F10 melanocyte = experiment: Suppression of generation of melanin to the B16F10 melanocyte; assay type: cell-based, mouse; conditions: 72 hours; red light 20 μW/cm^2; absorbance at 405 nm
Experimental: The B16F10 melanocyte is a cell strain derived from a mouse, and is a cell secreting a black pigment that is called melanin. The B16F10 melanocyte used in the present Experimental Example was distributed from ATCC (American Type Culture Collection™), and used.
The B16F10 melanocyte was divided in the 2×10^6 concentration for each well on the 6-well plate, attached, and cultivated by irradiating red light in the culture medium of Experimental Example 1 for 72 hours. After cultivation for 72 hours, the cells were separated by trypsin-EDTA (ethylenediaminetetraacetic acid), the number of cells was measured, and centrifugation was performed to collect the cells. Quantification of melanin in the cell was performed by modifying the Lotan's method. […] Melanin extracted by adding 1N NaOH (10% dimethyl sulfoxide (DMSO)) to the filtrate of the cell obtained by centrifugation was dissolved, absorbance of melanin was measured by the microplate reader at 405 nm, and melanin was quantified to measure the melanin generation hindrance ratio (%) of the sample. […]
The melanin generation hindrance ratio (%) of the B16F10 melanocyte was calculated by the following Equation 4, and the result is described in the following Table 4. […]

[1] = tested on: proinflammatory cytokine (1L-1α); experiment: Suppression of proinflammatory cytokine expression by irradiation of ultraviolet rays (ELISA); assay type: cell-based, human; conditions: after 10 mJ/cm^2 ultraviolet ray B; red light for 72 hours at 5 or 47.5 μW/cm^2
Experimental: 5×10^4 keratinocytes separated from the human epidermal tissue were put at a time on the 24-well test plate, and attached for 24 hours. Each well was washed by the PBS once, and 500 μl of the PBS was put on each well. After 10 mJ/cm^2 of ultraviolet rays were irradiated on the keratinocytes by using the ultraviolet ray B lamp, the PBS was taken out, and 350 μl of the cell cultivation medium (DMEM to which the […] was not added) was added. In addition, red light was irradiated in the culture medium of Experimental Example 1 for 72 hours to perform cultivation. 150 μl of cultivation supernatant was sampled to quantify proinflammatory cytokine (1L-1α) and thus judge the expression suppression effect of proinflammatory cytokine. The amount of proinflammatory cytokine was quantified by using the enzyme-linked immunosorbent assay, and ketoprofen known as the proinflammatory cytokine suppression material was used as the positive control group. The expression suppression ratio (%) of proinflammatory cytokine was calculated by the following Equation 7, and the result is described in the following Table 6.
Expression suppression ratio of […]

HaCaT keratinocyte = experiment: Cell regeneration, MTT assay on HaCaT keratinocyte; assay type: cell-based; conditions: three days cultivation, red light 47.5 μW/cm^2, TGF-β 10 ng/ml
Experimental: On the 24-well plate, the HaCaT keratinocyte (German Cancer Research Institute, Germany) was inoculated into the DMEM (Dulbecco™ Modified Eagle′ Medium) to which the 10% FBS (fetal bovine serum) was added in the density of 2×10^5 cells/well, and cultivated for one day in the humidified culture medium of 37° C. and 5% CO2. After exchanging with the serum-free DMEM, red light was irradiated for three days in the culture medium in which the aforementioned display device was installed to perform cultivation. In order to perform the comparative experiment, red light having the similar wavelength was irradiated for three days to perform cultivation, and TGF-β (transforming growth factor beta) (10 ng/ml), which is the material known to have a cell regeneration effect, was used as the positive control group. Further, cultivation was performed for three days in the culture medium having no light irradiation function to use the resulting keratinocyte as the control group. The degrees of generation of the cell were compared and evaluated by using the MTT (Microculture Tetrazolium) assay method, and the experimental result is described in the following Table 1.
In general, regeneration of the skin cell is measured by the activation rate of the cell, and the activation rate of the cell is proportional to the absorbance (at 570 nm) in Table 1. […]

[2] = tested on: procollagen type IC-peptide (PICP); experiment: Improvement of synthesis of collagen (PICP) in fibroblast; assay type: cell-based, human; conditions: red light 47.5 μW/cm^2 for 24 hours or 72 hours; TGF-β 10 ng/ml
Experimental: The fibroblast that was the human normal […] cell was inoculated on the 48-well microplate so that the number of cells was 1×10^6 for each well, cultivated in the DMEM medium for 24 hours, and cultivated by irradiating red light in a predetermined quantity for one day and three days in the culture medium of Experimental Example 1. In order to perform the comparative experiment, TGF-β (10 ng/ml) known to have the collagen synthesis improvement effect was used as the positive control group, and cultivation was further performed for 48 hours in the culture medium having no red light irradiation function to use the resulting fibroblast as the control group.
After cultivation, the supernatant liquid of each well was collected to measure the amount of procollagen type IC-peptide (PICP) by using the collagen kit (Takara™, Japan) and thus measure the amount of synthesized collagen. The collagen biosynthesis increase ratio (%) was calculated according to the following Equation 3, and the result is described in the following Table 3.
Collagen biosynthesis increase ratio(%)=(Amount of collagen of the experimental group/[…])×100 (Equation 3)

MMP-1 = experiment: Suppression of generation of collagenase MMP-1 in fibroblast; assay type: cell-based, human; conditions: fibroblast supernatant; three days; red light 47.5 μW/cm^2; TGF-β 10 ng/ml
Experimental: (§1) The fibroblast (Korean Cell Line Bank, Korean) that was the human normal skin cell was inoculated on the 48-well microplate (Nunc™, Denmark) so that the number of cells was 1×10^6 for each well, cultivated in the DMEM medium (Sigma™, USA) under the condition of 37° C. for 24 hours, and cultivated by irradiating red light for three days in the culture medium of Experimental Example 1. In order to perform the comparative experiment, red light having the similar wavelength was irradiated for three days to perform cultivation, and TGF-β (10 ng/ml) known to have the effect of suppressing generation of collagenase MMP-1,2 was used as the positive control group. Cultivation was further performed for 48 hours in the culture medium having no light irradiation function to use the resulting fibroblast as the control group.
(§2) After cultivation, the supernatant liquid of each well was collected to measure the amount (ng/ml) of newly synthesized MMP-1,2 by using the MMP-1,2 analysis kit (Amersham™, USA), the MMP generation suppression ratio (%) was calculated according to the following Equation 2, and the result is described in the following Table 2.
(§3) MMP generation rate(%)=(Amount of MMP of the experimental group/Amount of MMP of the control group)×100 (Equation 2)

MMP-2 = experiment: Suppression of generation of collagenase MMP-2 in fibroblast; assay type: cell-based, human; conditions: fibroblast supernatant; three days; red light 47.5 μW/cm^2; TGF-β 10 ng/ml
Experimental: as §1, §2, §3

## Oc1ccc(O)cc1 [Comparative Example 10, hydroquinone]
B16F10 melanocyte
  Melanin generation hindrance ratio (%): 73.1%

## OC[C@H]1O[C@@H](Oc2ccc(O)cc2)[C@H](O)[C@@H](O)[C@@H]1O [Comparative Example 11, arbutin]
B16F10 melanocyte
  Melanin generation hindrance ratio (%): 52.3%

## CC(C(=O)O)c1cccc(C(=O)c2ccccc2)c1 (stereo not shown) [compound 12, ketoprofen]
[1]
  Expression suppression ratio of proinflammatory cytokine (%): 41.1%

## TGF-β (transforming growth factor beta) [compound 3]
HaCaT keratinocyte
  Absorbance (at 570 nm): 1.423
[2]
  Collagen biosynthesis increase ratio (%): 24.7%
MMP-1
  MMP-1 generation suppression ratio (%): 75.1%
MMP-2
  MMP-2 generation suppression ratio (%): 76.2%
